Measurements reported in PMC10989073, “Antineoplastic effect of compounds C14 and P8 on TNBC and radioresistant TNBC cells by stabilizing the K-Ras4B^G13D/PDE6δ complex” (Frontiers in Oncology, 2024).
Like-named read-outs stand apart in the source and are kept apart here.

Tests used:
MCF-10A cells = assay: XTT cell viability assay and IC50 determination; assay type: cell-based, human; conditions: for concentration required to observe any effect on cell viability: MCF-10A control cells, statistical analysis; for IC50: XTT, ± SD
Protocol: (§1) In order to evaluate the effect of the C14 and P8 compounds over MCF-10A, MCF-7, MDA-MB-231, and […] cell lines, the IC50 of those molecules was determined. In brief, all the cell lines were seeded at a density of 15,000 cells per well in a 96-well microtiter plate (Corning) in a corresponding growth medium for 24 h. Then, cells were treated with increasing concentrations (from 0 to 200 μM) of the C14 and P8 compounds (Enamine, Kyiv, Ukraine). As a positive control, increased concentrations of cisplatin (from 0 to 200 µM) (Accord, Mexico City, Mexico) were employed. Due to that, dimethyl sulfoxide (DMSO) was used as a vehicle, and its increased concentrations were evaluated as the negative control. All the samples were maintained under growth conditions for 24 h and 48 h. At the end of each time, cell viability was determined using the XTT Cell Proliferation Kit II (Roche Applied Science, Mannheim, Germany) following the manufacturer’s protocol. The absorbance was measured in a spectrophotometer Synergy-HTX (BioTek) at a wavelength of 450–500 nm with a reference wavelength of 650 nm. Cell proliferation was expressed as a percentage of viability [(absorbance of treated cells/absorbance of untreated cells × 100)] ± SD.

MCF-7 cells = assay: XTT cell viability assay and IC50 determination; assay type: cell-based, human; conditions: ± SD
Protocol: as §1

MDA-MB-231RR cells [1] = assay: XTT cell viability assay and IC50 determination; assay type: cell-based, human; conditions: for IC50: XTT, ± SD
Protocol: as §1

MDA-MB-231 cells = assay: Apoptosis/necrosis assay (Annexin V–propidium iodide, flow cytometry); assay type: cell-based, human; conditions: MDA-MB-231, 24 h; C14 and P8 at IC50-24, cisplatin 100 µM, doxorubicin 0.5 µM
Protocol: (§2) To determine if the C14 and P8 compounds were able to evoke cell death by apoptosis or necrosis, cell lines MCF-10A, MDA-MB-231, and MDA-MB-231RR were treated at IC50-24 for 24 h. Apoptosis and necrosis were determined using the Apoptosis/Necrosis Detection kit (Abcam, Cambridge, UK) according to the manufacturer’s instructions. In brief, approximately 500,000 cells were seeded in 6-well plates (Corning) for 24 h. Then, each cell line was treated with the respective IC50-24 concentrations of C14 and P8. […] Cells were harvested and collected by centrifugation. All the samples were analyzed in triplicate using flow cytometry equipment FACSCalibur instrument (BD Biosciences, San Jose, CA, USA) at […] and 575-nm emission. Data analysis was performed using the FlowJo software (Tree Star Inc., Ashland, OR, USA). All experiments were performed in triplicate.

MDA-MB-231RR cells [2] = assay: as above; assay type: cell-based, human; conditions: 24 h, C14 and P8 at IC50-24, cisplatin 100 µM, doxorubicin 0.5 µM
Protocol: as §2

Ras-GTP in MCF-10A cells = assay: Ras activation pull-down assay (Raf-RBD); assay type: cell-based, human; conditions: 3 h pre-treatment (C14, P8 at IC50-48H), EGF 100 ng/ml 10 min
Protocol: Subsequently, the cells were stimulated with epidermal growth factor (EGF) (100 ng/ml) for 10 minutes. Lysates (1 mg/ml) were exposed to Ras GTP-binding protein (Raf-RBD), following the manufacturer’s instructions. Experiments for each cell type and condition were repeated three times.

[3] = Body weight and survival of xenograft mice under treatment; assay type: in vivo
Protocol: Female immune-deficient Nu/Nu nude mice at 6–8 weeks of age ([…], Mexico City, Mexico) were maintained in pathogen-free conditions with irradiated chow. […] Body weight and tumor volume were measured every third day. Tumor sizes were calculated using the formula [(length × width2)/2] in mm.

[4] = tested on: MDA-MB-231RR xenograft tumors; assay: Immunohistochemistry and digital pathology of xenograft tumors; assay type: in vivo, Nu/Nu nude mice; conditions: for expression of CD31 (IHC) / mitotic index (H&E staining): MDA-MB-231RR xenograft tumors; for PCNA expression (IHC, digital pathology) / VEGF expression (IHC, digital pathology) / cyclin D1 expression (IHC, digital pathology): MDA-MB-231RR xenograft tumors after treatment; for mitotic index (H&E staining): compared to the control group
Protocol: To determine the impact of C14 and P8 drugs on tumor inhibition, angiogenic, and cell cycle markers in a xenograft model, immunohistochemical assays and digital pathological analysis were conducted. For tissue preparation, 4-µm-thick tumor sections underwent a series of preparations: i) deparaffinization in xylene, ii) antigen retrieval in a sodium citrate buffer at pH 6, iii) blocking of endogenous peroxidase activity using a 10% hydrogen peroxide solution, and iv) non-specific binding blockade for 1 h. For the antibody incubation, the tumor sections were incubated with primary antibodies: Anti-Cyclin D1 (Abcam), Anti-PCNA (Abcam), Anti-CD31 (Abcam), Anti-VEGF (Abcam) at a 1:500 dilution.
The incubation with primary antibodies occurred at room temperature overnight. Subsequently, secondary antibody incubation was conducted. Then, the sections were incubated with horseradish peroxidase (HRP)-conjugated secondary antibody for 30 minutes. Finally, visualization and staining were performed using a diaminobenzidine (DAB) detection system from Vector Laboratories, Inc. (Burlingame, CA, USA). Counterstaining was performed using hematoxylin.
For the mitotic index evaluation, hematoxylin and eosin (H&E) staining was conducted to calculate the mitotic index. From each H&E-stained tumor tissue, 10 random fields were captured at ×40 magnification, and the number of mitotic figures was counted. The average count was used to calculate the mitotic index using the following formula: Mitotic index = Number of mitoses/10.
For digital pathology analysis, the immunohistochemistry (IHC)-stained sections were digitized using an Aperio ScanScope CS2 from Leica Biosystems (Nussloch, Germany), which generated high-resolution ×20 digital images (0.45 µm/pixel). These images were analyzed using ImageScope (Aperio, San Diego, CA, USA) to quantify marker expression. Then, a quantification algorithm was developed for each tissue to assess total and nuclear protein expression. The ImageScope allowed setting thresholds for color saturation and defining upper and lower limits for intensities of weak, moderate, and strong positive pixels. Lastly, the raw data encompassed the number of positive pixels and the intensity of positive pixels, which were normalized to the number of total pixels counted in µm^2. Data were presented as total density per µm^2.

[5] = MCF-10A, 24 h, read-out: IC50-24
[6] = MCF-10A, 48 h, read-out: IC50-48

Compound | concentration required to observe any effect on cell viability (MCF-10A cells) | IC50 (MCF-10A cells; [5]) | IC50 (MCF-10A cells; [6]) | IC50 (MCF-7 cells; MCF-7, 24 h, read-out: IC50-24) | IC50 (MCF-7 cells; MCF-7, 48 h, read-out: IC50-48) | IC50 (MDA-MB-231RR cells [1]; 24 h, read-out: IC50-24) | concentration from which a significant inhibitory effect on viability is seen (MDA-MB-231RR cells [1]; 48 h) | IC50 (MDA-MB-231RR cells [1]; 48 h, read-out: IC50-48) | apoptosis cells (MDA-MB-231 cells) | necrosis (MDA-MB-231 cells) | apoptosis cells (MDA-MB-231RR cells [2]) | necrosis (MDA-MB-231RR cells [2]) | reduction in Ras-GTP (Ras-GTP in MCF-10A cells) | expression of CD31 (IHC) [4] | PCNA expression (IHC, digital pathology) [4] | VEGF expression (IHC, digital pathology) [4] | cyclin D1 expression (IHC, digital pathology) [4] | mitotic index (H&E staining) [4] | also measured
CN(CC(=O)NC1CCOc2ccccc21)Cc1cccc(Cl)c1 (stereo not shown) [C14, 2-[(3-chlorophenyl)-methyl-methyl-amino]-N-croman-4-yl-acetamide] | higher than 100 µM | > 200 µM | > 200 µM | 174 ± 19 µM | 134 ± 10.5 µM | 128 ± 2.6 µM | ≥ 30 µM | 70.6 ± 3.5 µM | up to 18.52% | 0.56% | up to 21.62% | 0.13% | approximately 40% | decreased | 10 μm^2 | 100 μm^2 | 8 μm^2 | lower | tolerability (weight loss, overall survival) ([3]; mouse, in vivo, ip, 30 mg/kg): well tolerated
O=C(CN1CCN(c2cccc(Cl)c2)CC1)N[C@@H]1CCOc2ccccc21 [P8, 2-[4-(3-chlorophenyl)piperazin-1-yl]-N-[(4R)-chroman-4-yl]acetamide] | > 150 µM |  |  |  |  |  | ≥ 10 µM |  | 48.5% | 4.28% | 72% | 1.75% | approximately 40% | decreased | 18 μm^2 | 3,000 μm^2 | 20 μm^2 | lower | IC50 (MCF-10A cells; Homo sapiens, MCF-10A, 24 h, read-out: IC50-24): > 200 µM; IC50 (MCF-10A cells; Homo sapiens, MCF-10A, 48 h, read-out: IC50-48): > 200 µM; IC50 (MCF-7 cells; Homo sapiens, MCF7, MCF-7, 24 h, read-out: IC50-24): 185 ± 15.3 µM; IC50 (MCF-7 cells; Homo sapiens, MCF7, MCF-7, 48 h, read-out: IC50-48): 104 ± 49.8 µM; IC50 (MDA-MB-231RR cells [1]; Homo sapiens, 24 h, read-out: IC50-24): 163 ± 16.8 µM; IC50 (MDA-MB-231RR cells [1]; Homo sapiens, 48 h, read-out: IC50-48): 156 ± 28.4 µM; tolerability (weight loss, overall survival) ([3]; Nu/Nu mice, 30 mg/kg i.p. daily): well tolerated
N.N.[Cl][Pt][Cl] [Cisplatin, cisplatin, reference compound] |  | 12 µM | 5.9 ± 1.6 µM | 150 ± 32.1 µM | 67.3 ± 20.6 µM | 200 µM |  | 104 ± 8.7 µM | 13.71% | 2.14% | up to 19.13% | 0.40% | did not show an effect |  | 22 μm^2 | 3,000 μm^2 | 25 μm^2 |  | reduction of cellular viability (MCF-10A cells; MCF-10A, at low concentrations): more than 90%; survival of mice ([3]; Nu/Nu mice, cisplatin 6 mg/kg i.p. daily): ≤ 6 days; weight decrease ([3]; Nu/Nu mice, cisplatin 6 mg/kg i.p. daily, within the first 5 days of treatment): > 20%
